Laboratory results published in patent US8546381B2, “Bridged heterocyclic compounds and methods of use” (Medivation Technologies, Inc., priority 2008, dated 2013).

Target: T1, human recombinant serotonin (5-Hydroxytryptamine) 5-HT6 receptor (Homo sapiens, UniProt P50406)
T1 construct: expressed in transfected cells; host or cells: human HeLa cells
Experiment: Serotonin 5-HT6 radioligand binding ([3H]LSD)
Details: read-out: Serotonin 5-HT6, inhibition of ligand binding (1 μM)
Description: To evaluate in radioligand binding assays the activity of compounds of the invention, human recombinant serotonin (5-Hydroxytryptamine) 5-HT6 receptor expressed in human HeLa cells (Monsma, F. J. Jr. et al., Mol. Pharmacol. 43:320, 1993) in a modified Tris-HCl buffer (50 mM Tris-HCl, pH 7.4, 150 mM NaCl, 2 mM Ascorbic Acid, 0.001% BSA) was used. Compounds of the invention were incubated with 1.5 nM [3H]Lysergic acid diethylamide (LSD) for 120 minutes at 37° C. Non-specific binding was estimated in the presence of 5 μM Serotonin (5-HT). Receptor proteins were filtered and washed, the filters were then counted to determine [3H]LSD specifically bound. Compounds were screened at 1 μM or lower, using 1% DMSO as vehicle. Biochemical assay results are presented as the percent inhibition of specific binding in Table 4.

T1 sequence (P50406 whole entry): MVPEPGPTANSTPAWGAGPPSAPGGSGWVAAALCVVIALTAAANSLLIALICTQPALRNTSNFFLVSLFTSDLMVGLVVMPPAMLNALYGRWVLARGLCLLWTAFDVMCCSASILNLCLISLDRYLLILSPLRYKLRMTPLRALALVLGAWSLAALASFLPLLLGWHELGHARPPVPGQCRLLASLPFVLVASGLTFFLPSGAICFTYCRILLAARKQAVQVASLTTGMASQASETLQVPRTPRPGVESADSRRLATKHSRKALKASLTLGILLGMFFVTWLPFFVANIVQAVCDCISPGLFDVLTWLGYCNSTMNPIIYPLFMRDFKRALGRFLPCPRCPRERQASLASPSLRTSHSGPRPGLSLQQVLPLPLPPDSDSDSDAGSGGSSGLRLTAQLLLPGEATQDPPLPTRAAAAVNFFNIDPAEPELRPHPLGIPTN

| Structure (SMILES) | inhibition at 1 µM [%] |
| --- | --- |
| C/C(=C\n1c2c(c3cc(C)ccc31)C1CCC(C2)N1C)c1ccc(Cl)cc1 (stereo not shown) [Compound 116] | 10 |
| CN1[C@@H]2CC[C@H]1c1c(n(CCc3ccc(C(F)(F)F)nc3)c3ccccc13)C2 [Compound 97] | 8 |
| CN1C2CCC1c1c(n(CCC(=O)N3CCS(=O)(=O)CC3)c3ccc(Cl)cc13)C2 (stereo not shown) [Compound 11] | -16 |
| Cc1ccc2c(c1)c1c(n2C#Cc2ccc(F)cc2)CC2CCC1N2C (stereo not shown) [Compound 141] | 21 |
| COc1ccc(C(C)(O)Cn2c3c(c4cc(Cl)ccc42)C2CCC(C3)N2C)cc1F (stereo not shown) [Compound 160] | 29 |
| Cc1ccc(C#Cn2c3c(c4cc(Cl)ccc42)C2CCC(C3)N2C)cn1 (stereo not shown) [Compound 139] | 26 |
| Cc1ccc2c(c1)c1c(n2CCc2cncc(Cl)c2)CC2CCC1N2C (stereo not shown) [Compound 88] | 25 |
| C/C(=C\n1c2c(c3cc(C)ccc31)C1CCC(C2)N1C)c1ccc(Cl)cc1Cl (stereo not shown) [Compound 163] | 36 |
| CN1C2CCC1c1c(n(CCc3ccc(Cl)cc3)c3ccc(Cl)cc13)C2 (stereo not shown) [Compound 58] | 25 |
| Cc1ccc(CCn2c3c(c4ccccc42)[C@@H]2CC[C@H](C3)N2C)cn1 [Compound 102] | -5 |
| COc1ccc(/C(C)=C/n2c3c(c4cc(Cl)ccc42)C2CCC(C3)N2C)cc1F (stereo not shown) [Compound 136] | 31 |
| CN1C2CCC1c1c(n(CCc3ccc(F)cc3)c3ccc(Cl)cc13)C2 (stereo not shown) [Compound 57] | 46 |
| CN1C2CCC1c1c(n(CCC(=O)N3CCNC(=O)C3)c3ccc(Cl)cc13)C2 (stereo not shown) [Compound 3] | 3 |

Target: T2, human recombinant adrenergic α2A receptor (Homo sapiens, UniProt P08913)
T2 construct: expressed in transfected cells; host or cells: insect Sf9 cells
T2 sequence (P08913 1-465): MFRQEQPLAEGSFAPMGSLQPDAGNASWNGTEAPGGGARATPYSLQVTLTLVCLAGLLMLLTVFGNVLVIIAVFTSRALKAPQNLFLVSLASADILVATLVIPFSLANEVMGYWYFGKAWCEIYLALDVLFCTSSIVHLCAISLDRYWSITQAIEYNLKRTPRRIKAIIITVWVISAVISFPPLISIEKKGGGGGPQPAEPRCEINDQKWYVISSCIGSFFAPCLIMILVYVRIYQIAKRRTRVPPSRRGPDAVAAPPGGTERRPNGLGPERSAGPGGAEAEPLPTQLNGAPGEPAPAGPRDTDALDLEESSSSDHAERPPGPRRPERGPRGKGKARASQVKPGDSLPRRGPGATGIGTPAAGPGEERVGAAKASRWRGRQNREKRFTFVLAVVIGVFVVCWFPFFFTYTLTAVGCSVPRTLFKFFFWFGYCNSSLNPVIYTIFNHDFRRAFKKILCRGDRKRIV
Experiment: Adrenergic α2A radioligand binding ([3H]MK-912)
Details: 1 μM; read-out: Adrenergic α2A, inhibition of ligand binding (1 μM)
Description: To evaluate in radioligand binding assays the activity of compounds of the invention, human recombinant adrenergic α2A receptor expressed in insect Sf9 cells (Uhlen S et al. J Pharmacol Exp Ther. 271:1558, 1994) in a modified Tris-HCl buffer (50 mM Tris-HCl, pH 7.4, 12.5 mM MgCl2, 2 mM EDTA) was used. Compounds of invention were incubated with 1 nM [^3H]MK-912 for 60 minutes at 25° C. MK912 is (2S-trans)-1,3,4,5′,6,6′,7,12b-octahydro-1′,3′-dimethyl-spiro[2H-benzofuro[2,3-a]quinolizine-2,4′(1′H) -pyrimidin]-2′(3′H)-one hydrochloride Non-specific binding was estimated in the presence of 10 μM WB-4101 (2-(2,6-Dimethoxyphenoxyethyl)aminomethyl-1,4-benzodioxane hydrochloride). Receptor proteins were filtered and washed, the filters were then counted to determine [^3H]MK-912 specifically bound. Compounds were screened at 1 μM or lower, using 1% DMSO as vehicle. Biochemical assay results are presented as the percent inhibition of specific binding in Table 3.

| Structure (SMILES) | inhibition at 1 µM [%] |
| --- | --- |
| C/C(=C\n1c2c(c3cc(C)ccc31)C1CCC(C2)N1C)c1ccc(Cl)cc1 (stereo not shown) [Compound 116] | 83 |
| CN1[C@@H]2CC[C@H]1c1c(n(CCc3ccc(C(F)(F)F)nc3)c3ccccc13)C2 [Compound 97] | 26 |
| CN1C2CCC1c1c(n(CCC(=O)N3CCS(=O)(=O)CC3)c3ccc(Cl)cc13)C2 (stereo not shown) [Compound 11] | -10 |
| Cc1ccc2c(c1)c1c(n2C#Cc2ccc(F)cc2)CC2CCC1N2C (stereo not shown) [Compound 141] | 61 |
| COc1ccc(C(C)(O)Cn2c3c(c4cc(Cl)ccc42)C2CCC(C3)N2C)cc1F (stereo not shown) [Compound 160] | 63 |
| Cc1ccc(C#Cn2c3c(c4cc(Cl)ccc42)C2CCC(C3)N2C)cn1 (stereo not shown) [Compound 139] | 93 |
| Cc1ccc2c(c1)c1c(n2CCc2cncc(Cl)c2)CC2CCC1N2C (stereo not shown) [Compound 88] | 32 |
| C/C(=C\n1c2c(c3cc(C)ccc31)C1CCC(C2)N1C)c1ccc(Cl)cc1Cl (stereo not shown) [Compound 163] | 95 |
| CN1C2CCC1c1c(n(CCc3ccc(Cl)cc3)c3ccc(Cl)cc13)C2 (stereo not shown) [Compound 58] | 98 |
| Cc1ccc(CCn2c3c(c4ccccc42)[C@@H]2CC[C@H](C3)N2C)cn1 [Compound 102] | 4 |
| COc1ccc(/C(C)=C/n2c3c(c4cc(Cl)ccc42)C2CCC(C3)N2C)cc1F (stereo not shown) [Compound 136] | 91 |
| CN1C2CCC1c1c(n(CCc3ccc(F)cc3)c3ccc(Cl)cc13)C2 (stereo not shown) [Compound 57] | 96 |
| CN1C2CCC1c1c(n(CCC(=O)N3CCNC(=O)C3)c3ccc(Cl)cc13)C2 (stereo not shown) [Compound 3] | 8 |

Target: T3, human recombinant adrenergic α1D receptor (Homo sapiens, UniProt P25100)
T3 construct: expressed in transfected cells; host or cells: HEK-293 cells
T3 sequence (P25100 1-572): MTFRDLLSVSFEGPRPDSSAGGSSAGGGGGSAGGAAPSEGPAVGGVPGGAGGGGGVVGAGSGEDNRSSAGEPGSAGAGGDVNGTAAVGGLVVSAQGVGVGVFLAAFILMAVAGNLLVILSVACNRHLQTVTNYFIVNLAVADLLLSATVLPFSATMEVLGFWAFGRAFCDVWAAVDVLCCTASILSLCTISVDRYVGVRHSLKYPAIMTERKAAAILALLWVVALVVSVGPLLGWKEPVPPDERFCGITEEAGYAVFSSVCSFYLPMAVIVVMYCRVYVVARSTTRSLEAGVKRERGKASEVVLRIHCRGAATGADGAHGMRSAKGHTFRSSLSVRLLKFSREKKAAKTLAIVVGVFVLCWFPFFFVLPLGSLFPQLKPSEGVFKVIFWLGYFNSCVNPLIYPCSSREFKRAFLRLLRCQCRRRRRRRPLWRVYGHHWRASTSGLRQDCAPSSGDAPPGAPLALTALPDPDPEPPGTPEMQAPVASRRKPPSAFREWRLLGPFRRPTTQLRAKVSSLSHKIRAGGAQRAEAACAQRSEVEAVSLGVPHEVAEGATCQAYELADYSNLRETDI
Experiment: Adrenergic α1D radioligand binding ([3H]Prozosin)
Details: 1 μM; read-out: Adrenergic α1D, inhibition of ligand binding (1 μM)
Description: To evaluate in radioligand binding assays the activity of compounds of the invention, human recombinant adrenergic α1D receptor expressed in human embryonic kidney (HEK-293) cells (Kenny, B. A. et al. Br. J. Pharmacol. 115(6):981, 1995) in a 50 mM Tris-HCl buffer, pH 7.4, was used. Compounds of invention were incubated with 0.6 nM [^3H]Prozosin for 60 minutes at 25° C. Non-specific binding was estimated in the presence of 10 μM phentolamine. Receptor proteins were filtered and washed, the filters were then counted to determine [^3H]Prozosin specifically bound. Compounds were screened at 1 μM or lower, using 1% DMSO as vehicle. Biochemical assay results are presented as the percent inhibition of specific binding in Table 3.

| Structure (SMILES) | inhibition at 1 µM [%] |
| --- | --- |
| C/C(=C\n1c2c(c3cc(C)ccc31)C1CCC(C2)N1C)c1ccc(Cl)cc1 (stereo not shown) [Compound 116] | 40 |
| CN1[C@@H]2CC[C@H]1c1c(n(CCc3ccc(C(F)(F)F)nc3)c3ccccc13)C2 [Compound 97] | 19 |
| CN1C2CCC1c1c(n(CCC(=O)N3CCS(=O)(=O)CC3)c3ccc(Cl)cc13)C2 (stereo not shown) [Compound 11] | -11 |
| Cc1ccc2c(c1)c1c(n2C#Cc2ccc(F)cc2)CC2CCC1N2C (stereo not shown) [Compound 141] | 20 |
| COc1ccc(C(C)(O)Cn2c3c(c4cc(Cl)ccc42)C2CCC(C3)N2C)cc1F (stereo not shown) [Compound 160] | 0 |
| Cc1ccc(C#Cn2c3c(c4cc(Cl)ccc42)C2CCC(C3)N2C)cn1 (stereo not shown) [Compound 139] | 65 |
| Cc1ccc2c(c1)c1c(n2CCc2cncc(Cl)c2)CC2CCC1N2C (stereo not shown) [Compound 88] | 73 |
| C/C(=C\n1c2c(c3cc(C)ccc31)C1CCC(C2)N1C)c1ccc(Cl)cc1Cl (stereo not shown) [Compound 163] | 53 |
| CN1C2CCC1c1c(n(CCc3ccc(Cl)cc3)c3ccc(Cl)cc13)C2 (stereo not shown) [Compound 58] | 74 |
| Cc1ccc(CCn2c3c(c4ccccc42)[C@@H]2CC[C@H](C3)N2C)cn1 [Compound 102] | 1 |
| COc1ccc(/C(C)=C/n2c3c(c4cc(Cl)ccc42)C2CCC(C3)N2C)cc1F (stereo not shown) [Compound 136] | 61 |
| CN1C2CCC1c1c(n(CCc3ccc(F)cc3)c3ccc(Cl)cc13)C2 (stereo not shown) [Compound 57] | 69 |
| CN1C2CCC1c1c(n(CCC(=O)N3CCNC(=O)C3)c3ccc(Cl)cc13)C2 (stereo not shown) [Compound 3] | 6 |

Target: T4, human recombinant serotonin (5-Hydroxytryptamine) 5-HT2A receptor (Homo sapiens, UniProt P28223)
T4 construct: expressed in transfected cells; host or cells: CHO-K1 cells
T4 sequence (P28223 whole entry): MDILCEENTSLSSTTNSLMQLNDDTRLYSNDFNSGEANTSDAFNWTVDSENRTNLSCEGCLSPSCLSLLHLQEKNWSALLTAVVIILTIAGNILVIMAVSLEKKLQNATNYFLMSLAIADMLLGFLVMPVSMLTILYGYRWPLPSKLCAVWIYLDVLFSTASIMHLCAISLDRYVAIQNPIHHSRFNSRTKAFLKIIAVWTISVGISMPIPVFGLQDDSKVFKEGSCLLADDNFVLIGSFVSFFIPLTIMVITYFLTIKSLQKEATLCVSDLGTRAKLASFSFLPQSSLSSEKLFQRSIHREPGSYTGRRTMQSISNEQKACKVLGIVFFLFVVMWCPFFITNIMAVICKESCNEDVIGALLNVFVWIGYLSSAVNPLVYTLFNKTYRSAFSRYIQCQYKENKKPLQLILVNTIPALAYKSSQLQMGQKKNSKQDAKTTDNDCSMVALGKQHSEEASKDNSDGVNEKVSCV
Experiment: Serotonin 5-HT2A radioligand binding ([3H]Ketanserin)
Details: read-out: Serotonin 5-HT2A, inhibition of ligand binding (1 μM)
Description: To evaluate in radioligand binding assays the activity of compounds of the invention, human recombinant serotonin (5-Hydroxytryptamine) 5-HT2A receptor expressed in Chinese hamster ovary (CHO-K1) cells (Bonhaus, D. W. et al. Br. J. Pharmacol. 115:622, 1995; Saucier, C. and Albert, P. R., J. Neurochem. 68:1998, 1997) in a 50 mM Tris-HCl buffer, pH 7.4, was used. Compounds of the invention were incubated with 0.5 nM [^3H]Ketanserin for 60 minutes at 25° C. Non-specific binding was estimated in the presence of 1 μM Mianserin. Receptor proteins were filtered and washed, the filters were then counted to determine [^3H]Ketanserin specifically bound. Compounds were screened at 1 μM or lower, using 1% DMSO as vehicle. Biochemical assay results are presented as the percent inhibition of specific binding in Table 4.

| Structure (SMILES) | inhibition at 1 µM [%] |
| --- | --- |
| C/C(=C\n1c2c(c3cc(C)ccc31)C1CCC(C2)N1C)c1ccc(Cl)cc1 (stereo not shown) [Compound 116] | 90 |
| CN1[C@@H]2CC[C@H]1c1c(n(CCc3ccc(C(F)(F)F)nc3)c3ccccc13)C2 [Compound 97] | 25 |
| CN1C2CCC1c1c(n(CCC(=O)N3CCS(=O)(=O)CC3)c3ccc(Cl)cc13)C2 (stereo not shown) [Compound 11] | -8 |
| Cc1ccc2c(c1)c1c(n2C#Cc2ccc(F)cc2)CC2CCC1N2C (stereo not shown) [Compound 141] | 93 |
| COc1ccc(C(C)(O)Cn2c3c(c4cc(Cl)ccc42)C2CCC(C3)N2C)cc1F (stereo not shown) [Compound 160] | 95 |
| Cc1ccc(C#Cn2c3c(c4cc(Cl)ccc42)C2CCC(C3)N2C)cn1 (stereo not shown) [Compound 139] | 88 |
| Cc1ccc2c(c1)c1c(n2CCc2cncc(Cl)c2)CC2CCC1N2C (stereo not shown) [Compound 88] | 55 |
| C/C(=C\n1c2c(c3cc(C)ccc31)C1CCC(C2)N1C)c1ccc(Cl)cc1Cl (stereo not shown) [Compound 163] | 94 |
| CN1C2CCC1c1c(n(CCc3ccc(Cl)cc3)c3ccc(Cl)cc13)C2 (stereo not shown) [Compound 58] | 79 |
| Cc1ccc(CCn2c3c(c4ccccc42)[C@@H]2CC[C@H](C3)N2C)cn1 [Compound 102] | 11 |
| COc1ccc(/C(C)=C/n2c3c(c4cc(Cl)ccc42)C2CCC(C3)N2C)cc1F (stereo not shown) [Compound 136] | 99 |
| CN1C2CCC1c1c(n(CCc3ccc(F)cc3)c3ccc(Cl)cc13)C2 (stereo not shown) [Compound 57] | 79 |
| CN1C2CCC1c1c(n(CCC(=O)N3CCNC(=O)C3)c3ccc(Cl)cc13)C2 (stereo not shown) [Compound 3] | 3 |
